Assay results from patent US20240215873A1, “Aptamer Sensors with Temperature Correction” (University of Cincinnati, priority 2021, published 2024).

Settings: room temperature; saturated concentration of target analyte; 20 mM tris buffer
Protocol: The sensors were all interrogated in 20 mM tris buffer (20 mM trizma base, 100 mM NaCl and 5 mM MgCl2). FIG. 5 illustrates the equilibration of a sensor response with or without the presence of analyte target such as ATP, Tobramycin, or Cocaine.
The aptamers were equilibrated, interrogated, and regenerated in tris buffer at 1° C., 22° C. and 37° C. […] The performance of each E-AB sensor was characterized to determine their expected response in room temperature (RT).
To fabricate the E-AB sensors, the 2 mm diameter gold disk macro electrodes (CH Instruments, Austin, TX) were hand polished for 2 min in a 1 μm diamond slurry (Buehler, Lake Bluff, IL) followed by polishing for 2 min in 0.05 μm alumina oxide slurry (Buehler, Lake Bluff, IL). All electrodes were rinsed with ultrapure water (Milli-Q Ultrapure Water Purification, Millipore, Billerica, MA, U.S.A.). To remove particulates, the electrodes were sonicated in a low power sonicator for 5 min. Next, the electrodes were electrochemically cleaned in various concentrations of sodium hydroxide and sulfuric acid solutions. Sensor fabrication consists of numerous steps of incubation. First, 2 uL of 100 mM TCEP was added to 1 μL of aptamer and left to incubate for 1 h to perform a disulfide bond reaction. […]

cocaine
percent signal change (increase in current): 56%
